From patent publication US20230047788A1, “COMPOSITIONS COMPRISING 5-CHOLESTEN-3, 25-DIOL, 3-SULFATE (25HC3S) OR PHARMACEUTICALLY ACCEPTABLE SALT THEREOF AND AT LEAST ONE CYCLIC OLIGOSACCHARIDE” (Virginia Commonwealth University, priority 2016, published 2023)

Assay: Effect of phosphate and borate buffers on chemical stability (% remaining, impurity profile), osmolality, pH and appearance of 25HC3S 30 mg/mL in 250 mg/mL HPBCD at 80°C and 60°C
Type: physicochemical
Set-up: First Order Rate Constant: unit not given beside the values
Description: A total of six 25HC3S formulations at 30 mg/mL in 250 mg/mL of 2-hydroxypropyl beta cyclodextrin (HPBCD) containing 10, 20, 50 and 100 mM phosphate buffers at pH 7.5 to 8.1 and 10 and 50 mM borate buffers at pH 9.4 were prepared for the stability study. The chemical stability (measured as % remaining of 25HC3S) and physical stability (osmolality, pH and appearance) of the formulations were monitored under accelerated conditions for up to 7 days at 80° C. and up to 29 days at 60° C.
Two stock solutions of phosphate buffer at 100 and 200 mM at pH 7.4 and 7.3, respectively and one borate buffer at 100 mM at pH 9.3 were prepared (Tables 22A and 22B) and used for 250 mg/mL HPBCD vehicles preparation (Table 23).
Approximately 1200 mg each of 25HC3S was weighed into 40 mL volumetric flasks and diluted to volume with the six HPBCD vehicles containing 10-100 mM phosphate buffers or 10 and 50 mM borate buffers, respectively (Table 24). The final concentration of 25HC3S was 30 mg/mL (wt/volume, without adjusting for API purity). Aliquots of 2 mL of each formulation were filled into 2 mL glass vials, stoppered and sealed for stability sample set-up at 60° C. and 80° C. to study the effect of phosphate buffer (pH 7.5-8.1) and borate buffer (pH 9.4) at various buffer concentrations on the stability of the HPBCD formulations (Table 26).
A 0.5 mL of sample solution was transferred to a 25 mL volumetric flask and QS'ed with methanol/water=95/5 for 25HC3S concentration determination by HPLC. The % remaining of 25HC3S was calculated as follows: […]

[1] = 250 mg/mL HPBCD, 10 mM borate, 80°C, day 0
[2] = 250 mg/mL HPBCD, 10 mM borate, 80°C, day 1
[3] = 250 mg/mL HPBCD, 10 mM borate, 80°C, day 2
[4] = 250 mg/mL HPBCD, 10 mM borate, 80°C, day 3
[5] = 250 mg/mL HPBCD, 10 mM borate, 80°C, day 7
[6] = 250 mg/mL HPBCD, 10 mM borate, day 0
[7] = 250 mg/mL HPBCD, 10 mM phosphate, 80°C, day 0
[8] = 250 mg/mL HPBCD, 10 mM phosphate, 80°C, day 1
[9] = 250 mg/mL HPBCD, 10 mM phosphate, 80°C, day 2
[10] = 250 mg/mL HPBCD, 10 mM phosphate, 80°C, day 3
[11] = 250 mg/mL HPBCD, 10 mM phosphate, 80°C, day 7
[12] = 250 mg/mL HPBCD, 10 mM phosphate, day 0
[13] = 250 mg/mL HPBCD, 20 mM phosphate, 80°C, day 0
[14] = 250 mg/mL HPBCD, 20 mM phosphate, 80°C, day 1
[15] = 250 mg/mL HPBCD, 20 mM phosphate, 80°C, day 2
[16] = 250 mg/mL HPBCD, 20 mM phosphate, 80°C, day 3
[17] = 250 mg/mL HPBCD, 20 mM phosphate, 80°C, day 7

Question: With `C[C@H](CCCC(C)(C)O)[C@H]1CC[C@H]2[C@@H]3CC=C4C[C@@H](OS(=O)(=O)[O-])CC[C@]4(C)[C@H]3CC[C@]12C.[Na+]` [25HC3S, 5-cholesten-3, 25-diol, 3-sulfate] as the compound, how does the “Calculated t90” value (10 mM borate, 80°C) read?
Answer: The value was 2.0 days.

Question: And the “First Order Rate Constant” value (10 mM borate, 80°C)?
Answer: Its value is −0.0463.

Question: And the “Intercept (first order fit of % remaining)” value (10 mM borate, 80°C)?
Answer: Its value is 98.9.

Question: What about the “Calculated t90” value (10 mM phosphate, 80°C) of the same compound?
Answer: The value was 2.3 days.

Question: And the “First Order Rate Constant” value (10 mM phosphate, 80°C)?
Answer: The value was −0.0462.

Question: And the “Intercept (first order fit of % remaining)” value (10 mM phosphate, 80°C)?
Answer: The value was 99.9.

Question: And the “Calculated t90” value (20 mM phosphate, 80°C)?
Answer: The value was 2.2 days.

Question: And the “First Order Rate Constant” value (20 mM phosphate, 80°C)?
Answer: Its value is −0.0437.

Question: And the “Intercept (first order fit of % remaining)” value (20 mM phosphate, 80°C)?
Answer: Its value is 99.2.

Question: And the “Calculated t90” value (50 mM borate, 80°C)?
Answer: Its value is 1.9 days.

Question: What about the “First Order Rate Constant” value (50 mM borate, 80°C) of the same compound?
Answer: The value was −0.0484.

Question: What about the “Intercept (first order fit of % remaining)” value (50 mM borate, 80°C) of the same compound?
Answer: Its value is 98.8.

Question: And the “Calculated t90” value (50 mM phosphate, 80°C)?
Answer: Its value is 2.2 days.

Question: And the “First Order Rate Constant” value (50 mM phosphate, 80°C)?
Answer: The value was −0.0451.

Question: What about the “Intercept (first order fit of % remaining)” value (50 mM phosphate, 80°C) of the same compound?
Answer: The value was 99.5.

Question: What about the “Calculated t90” value (100 mM phosphate, 80°C) of the same compound?
Answer: The value was 2.2 days.

Question: And the “First Order Rate Constant” value (100 mM phosphate, 80°C)?
Answer: The value was −0.0430.

Question: What about the “Intercept (first order fit of % remaining)” value (100 mM phosphate, 80°C) of the same compound?
Answer: Its value is 99.

Question: What about the pH (250 mg/mL HPBCD, 10 mM borate, 60°C, 29 days) of the same compound?
Answer: Its pH is 8.90.

Question: What about the 25HC3S concentration [1] of the same compound?
Answer: Its 25HC3S concentration is 28.58 mg/mL.

Question: What about the “% Remaining of 25HC3S” value [1] of the same compound?
Answer: The value was 100.0%.

Question: And the 25HC3S concentration [2]?
Answer: The 25HC3S concentration was 26.90 mg/mL.

Question: And the “% Remaining of 25HC3S” value [2]?
Answer: The value was 94.1%.

Question: What about the Osmolality [2] of the same compound?
Answer: The Osmolality was 318 mmol/kg.

Question: And the pH [2]?
Answer: The pH was 9.12.

Question: And the 25HC3S concentration [3]?
Answer: The 25HC3S concentration was 25.63 mg/mL.

Question: And the “% Remaining of 25HC3S” value [3]?
Answer: The value was 89.7%.

Question: And the Osmolality [3]?
Answer: The Osmolality was 323 mmol/kg.

Question: What about the pH [3] of the same compound?
Answer: The pH was 8.92.

Question: What about the 25HC3S concentration [4] of the same compound?
Answer: Its 25HC3S concentration is 24.40 mg/mL.

Question: And the “% Remaining of 25HC3S” value [4]?
Answer: The value was 85.4%.

Question: And the Osmolality [4]?
Answer: The Osmolality was 328 mmol/kg.

Question: What about the pH [4] of the same compound?
Answer: The pH was 8.60.

Question: What about the 25HC3S concentration [5] of the same compound?
Answer: Its 25HC3S concentration is 20.55 mg/mL.

Question: And the “% Remaining of 25HC3S” value [5]?
Answer: Its value is 71.9%.

Question: And the Appearance [5]?
Answer: The Appearance was “light brown”.

Question: And the Osmolality [5]?
Answer: Its Osmolality is 352 mmol/kg.

Question: What about the pH [5] of the same compound?
Answer: The pH was 7.06.

Question: And the Osmolality [6]?
Answer: The Osmolality was 316 mmol/kg.

Question: And the pH [6]?
Answer: The pH was 9.36.

Question: And the pH (250 mg/mL HPBCD, 10 mM phosphate, 60°C, 29 days)?
Answer: The pH was 7.04.

Question: What about the 25HC3S concentration [7] of the same compound?
Answer: Its 25HC3S concentration is 28.45 mg/mL.

Question: And the “% Remaining of 25HC3S” value [7]?
Answer: The value was 100.0%.

Question: And the 25HC3S concentration [8]?
Answer: The 25HC3S concentration was 27.03 mg/mL.

Question: What about the “% Remaining of 25HC3S” value [8] of the same compound?
Answer: The value was 95.0%.

Question: And the Osmolality [8]?
Answer: Its Osmolality is 291 mmol/kg.

Question: What about the pH [8] of the same compound?
Answer: The pH was 7.28.

Question: What about the 25HC3S concentration [9] of the same compound?
Answer: The 25HC3S concentration was 26.00 mg/mL.

Question: And the “% Remaining of 25HC3S” value [9]?
Answer: Its value is 91.4%.

Question: And the Osmolality [9]?
Answer: The Osmolality was 286 mmol/kg.

Question: What about the pH [9] of the same compound?
Answer: Its pH is 6.82.

Question: What about the 25HC3S concentration [10] of the same compound?
Answer: The 25HC3S concentration was 24.70 mg/mL.

Question: What about the “% Remaining of 25HC3S” value [10] of the same compound?
Answer: Its value is 86.8%.

Question: What about the Osmolality [10] of the same compound?
Answer: Its Osmolality is 294 mmol/kg.

Question: And the pH [10]?
Answer: The pH was 6.34.

Question: What about the 25HC3S concentration [11] of the same compound?
Answer: Its 25HC3S concentration is 20.58 mg/mL.

Question: What about the “% Remaining of 25HC3S” value [11] of the same compound?
Answer: The value was 72.3%.

Question: What about the Osmolality [11] of the same compound?
Answer: The Osmolality was 300 mmol/kg.

Question: What about the pH [11] of the same compound?
Answer: The pH was 2.67.

Question: What about the Osmolality [12] of the same compound?
Answer: Its Osmolality is 273 mmol/kg.

Question: And the pH [12]?
Answer: The pH was 8.09.

Question: And the pH (250 mg/mL HPBCD, 20 mM phosphate, 60°C, 29 days)?
Answer: The pH was 7.17.

Question: What about the 25HC3S concentration [13] of the same compound?
Answer: The 25HC3S concentration was 28.63 mg/mL.

Question: What about the “% Remaining of 25HC3S” value [13] of the same compound?
Answer: The value was 100.0%.

Question: And the 25HC3S concentration [14]?
Answer: The 25HC3S concentration was 27.03 mg/mL.

Question: And the “% Remaining of 25HC3S” value [14]?
Answer: The value was 94.4%.

Question: And the Osmolality [14]?
Answer: The Osmolality was 325 mmol/kg.

Question: And the pH [14]?
Answer: The pH was 7.35.

Question: What about the 25HC3S concentration [15] of the same compound?
Answer: Its 25HC3S concentration is 26.05 mg/mL.

Question: And the “% Remaining of 25HC3S” value [15]?
Answer: Its value is 91.0%.

Question: What about the Osmolality [15] of the same compound?
Answer: The Osmolality was 328 mmol/kg.

Question: What about the pH [15] of the same compound?
Answer: The pH was 7.13.

Question: And the 25HC3S concentration [16]?
Answer: The 25HC3S concentration was 24.70 mg/mL.

Question: What about the “% Remaining of 25HC3S” value [16] of the same compound?
Answer: Its value is 86.3%.

Question: And the Osmolality [16]?
Answer: The Osmolality was 328 mmol/kg.

Question: What about the pH [16] of the same compound?
Answer: Its pH is 6.80.

Question: What about the 25HC3S concentration [17] of the same compound?
Answer: The 25HC3S concentration was 21.00 mg/mL.

Question: And the “% Remaining of 25HC3S” value [17]?
Answer: The value was 73.3%.

Question: What about the Osmolality [17] of the same compound?
Answer: The Osmolality was 354 mmol/kg.

Question: What about the pH [17] of the same compound?
Answer: The pH was 5.75.

Question: What about the Osmolality (250 mg/mL HPBCD, 20 mM phosphate, day 0) of the same compound?
Answer: Its Osmolality is 311 mmol/kg.
